# Data reported in PubChem BioAssay (NCI).
#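 Where inhibition never reached the appropriate level, the endpoint shown equals the highest concentration tested. Otherwise, values were interpolated linearly from a five-concentration, 48-hour dose response in 96-well plates. TGI: concentration producing complete growth inhibition.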
# Legend:
# Experiment in all cases: NCI tumour cell line growth inhibition, 48 h
# SW-620 colon = tested on: SW-620 colon
# NCI-H23 lung = tested on: NCI-H23 lung
# K-562 leukemia = tested on: K-562 leukemia
# HCT-116 colon = tested on: HCT-116 colon
# HL-60(TB) leukemia = tested on: HL-60(TB) leukemia
# HCC-2998 colon = tested on: HCC-2998 colon
# MDA-N = tested on: MDA-N
# MOLT-4 leukemia = tested on: MOLT-4 leukemia
# UACC-257 melanoma = tested on: UACC-257 melanoma
# M14 melanoma = tested on: M14 melanoma
# RXF 393 renal = tested on: RXF 393 renal
# LOX IMVI melanoma = tested on: LOX IMVI melanoma
# SF-295 CNS = tested on: SF-295 CNS
# OVCAR-5 ovarian = tested on: OVCAR-5 ovarian
# MDA-MB-435 = tested on: MDA-MB-435
# OVCAR-3 ovarian = tested on: OVCAR-3 ovarian
# PC-3 prostate = tested on: PC-3 prostate
# SNB-19 CNS = tested on: SNB-19 CNS
# SF-539 CNS = tested on: SF-539 CNS
# SR leukemia = tested on: SR leukemia
SMILES,TGI (SW-620 colon),TGI (NCI-H23 lung),TGI (K-562 leukemia),TGI (HCT-116 colon),TGI (HL-60(TB) leukemia),TGI (HCC-2998 colon),TGI (MDA-N),TGI (MOLT-4 leukemia),TGI (UACC-257 melanoma),TGI (M14 melanoma),TGI (RXF 393 renal),TGI (LOX IMVI melanoma),TGI (SF-295 CNS),TGI (OVCAR-5 ovarian),TGI (MDA-MB-435),TGI (OVCAR-3 ovarian),TGI (PC-3 prostate),TGI (SNB-19 CNS),TGI (SF-539 CNS),TGI (SR leukemia)
CC(=O)OCC1OC(Oc2cc(C)c(O)cc2C/C=C(\C)CC/C=C(\C)C[C@@H](C=C(C)C)OC(C)=O)C(O)C(OC(C)=O)C1OC(C)=O (stereo partly specified),> 50 µM,> 50 µM,35.4 µM,> 50 µM,21 µM,41.2 µM,> 50 µM,20.5 µM,39.8 µM,> 50 µM,34.4 µM,47.3 µM,> 50 µM,> 50 µM,> 50 µM,> 50 µM,> 50 µM,> 50 µM,–,–
CCCCCC1=C2C(c3ccc(OC)cc3)=C(N)C(c3ccc(OC)cc3)=C3NC(=O)C(C=C1)C32 (stereo unspecified),> 100 µM,> 100 µM,> 100 µM,> 100 µM,> 100 µM,> 100 µM,> 100 µM,> 100 µM,> 100 µM,> 100 µM,54.1 µM,> 100 µM,> 100 µM,> 100 µM,> 100 µM,> 100 µM,> 100 µM,> 100 µM,–,–
Cn1cnc2c1c(=O)n(CCNCCO)c(=O)n2C,> 100 µM,> 100 µM,> 100 µM,> 100 µM,> 100 µM,> 100 µM,> 100 µM,> 100 µM,> 100 µM,> 100 µM,> 100 µM,> 100 µM,> 100 µM,> 100 µM,> 100 µM,> 100 µM,> 100 µM,> 100 µM,> 100 µM,–
O=C(c1ccccc1)N1CCC(Nc2nccs2)O1 (stereo unspecified),> 10 µM,> 10 µM,> 10 µM,> 10 µM,> 10 µM,> 10 µM,–,> 10 µM,> 10 µM,> 10 µM,> 10 µM,> 10 µM,> 10 µM,> 10 µM,> 10 µM,> 10 µM,> 10 µM,> 10 µM,> 10 µM,> 10 µM
N#C/C(C(=O)Nc1ccc(Cl)cc1)=C(/N)N1CCOCC1,> 100 µM,> 100 µM,> 100 µM,> 100 µM,–,> 100 µM,> 100 µM,> 100 µM,> 100 µM,> 100 µM,–,> 100 µM,> 100 µM,> 100 µM,> 100 µM,> 100 µM,> 100 µM,> 100 µM,> 100 µM,> 100 µM
COc1ccc(Nc2nc3ccc(C(F)(F)F)cc3nc2C(=O)O)cc1,> 100 µM,93.3 µM,> 100 µM,> 100 µM,–,50 µM,> 100 µM,98.6 µM,96.7 µM,> 100 µM,62.6 µM,> 100 µM,89.4 µM,84.9 µM,> 100 µM,47.4 µM,92.4 µM,–,75.9 µM,–
CCOC(=O)C1=C(c2ccccc2)N(C(C)=O)Cc2ccccc21,> 100 µM,34.5 µM,> 100 µM,30.2 µM,37.5 µM,> 100 µM,–,34.8 µM,34.6 µM,35 µM,68.2 µM,33.2 µM,37.8 µM,> 100 µM,–,43.2 µM,–,> 100 µM,30.9 µM,41.7 µM
CC(=O)N(CCCCNC(=O)C(F)(F)F)CCCNC(=O)C(F)(F)F,> 100 µM,> 100 µM,> 100 µM,> 100 µM,> 100 µM,> 100 µM,–,> 100 µM,> 100 µM,> 100 µM,> 100 µM,–,> 100 µM,> 100 µM,> 100 µM,> 100 µM,> 100 µM,> 100 µM,> 100 µM,> 100 µM
COc1ccc(/C=C2\N=C(c3ccccc3)OC2=O)cc1OC(C)=O,> 100 µM,> 100 µM,> 100 µM,> 100 µM,> 100 µM,> 100 µM,–,26.1 µM,> 100 µM,> 100 µM,> 100 µM,> 100 µM,–,> 100 µM,> 100 µM,> 100 µM,> 100 µM,> 100 µM,> 100 µM,45 µM
O=C1OCCC[C@H]2O[C@@H](COCc3ccccc3)C[C@@H]12,> 100 µM,> 100 µM,> 100 µM,> 100 µM,> 100 µM,–,> 100 µM,> 100 µM,> 100 µM,> 100 µM,–,–,> 100 µM,> 100 µM,> 100 µM,> 100 µM,> 100 µM,> 100 µM,> 100 µM,> 100 µM
COc1ccc2c(c1)/C(=C\c1c(Cl)n(-c3ccccc3)c3ccccc13)C(=O)N2,> 100 µM,38.4 µM,> 100 µM,14.6 µM,10.7 µM,22.2 µM,–,> 100 µM,50.8 µM,15 µM,11.2 µM,92.7 µM,25.9 µM,50 µM,–,6.78 µM,> 100 µM,22.1 µM,41.6 µM,> 100 µM
COc1cc2c(cc1OC)C(=O)/C(=C/c1cc(Cl)cc(Cl)c1)C2,> 100 µM,> 100 µM,> 44.4 µM,> 100 µM,> 100 µM,> 100 µM,4.86 µM,> 100 µM,> 100 µM,> 100 µM,> 100 µM,> 100 µM,–,> 100 µM,> 19.6 µM,> 100 µM,> 100 µM,> 100 µM,9.94 µM,–
CCCCCCC1CC(=O)C1(Cl)Cl (stereo unspecified),> 100 µM,57.7 µM,> 100 µM,30.4 µM,44.1 µM,57.4 µM,85 µM,52.1 µM,41.1 µM,62.6 µM,–,44.6 µM,> 100 µM,> 100 µM,–,–,> 100 µM,> 100 µM,> 100 µM,–
